The text below walks through data of ChEMBL document CHEMBL1142261 (Bioorg Med Chem, 2008).

Calls of active or inactive are those of the source. The calls are words filed in the database; no cut-off is given here. Peptide text beside a SMILES is read from it. * marks the point of attachment. Isovaleryl = CC(C)CC(=O)*; Propionyl = CCC(=O)*; Bz = O=C(c1ccccc1)*

The target of test [1] is T1, Nociceptin receptor (Homo sapiens, UniProt P41146). The test is described as follows: Activity at human ORL1-Galpha fusion receptor in COS7 cells assessed as stimulation of [35S]GTP-gamma-S binding. Type of test: functional, cell-based, COS-7.
T1 sequence (P41146 whole entry, the tested form may be a part): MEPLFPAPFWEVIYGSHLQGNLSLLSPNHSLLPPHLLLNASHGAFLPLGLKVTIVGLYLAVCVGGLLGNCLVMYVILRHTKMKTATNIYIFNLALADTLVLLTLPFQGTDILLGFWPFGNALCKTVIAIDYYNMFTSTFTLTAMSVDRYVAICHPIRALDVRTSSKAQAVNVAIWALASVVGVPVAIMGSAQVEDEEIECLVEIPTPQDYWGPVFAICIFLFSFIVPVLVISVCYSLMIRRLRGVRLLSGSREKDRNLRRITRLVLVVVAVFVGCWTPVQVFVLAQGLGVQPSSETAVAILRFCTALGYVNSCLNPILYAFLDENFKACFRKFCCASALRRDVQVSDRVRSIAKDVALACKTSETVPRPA
Test [2] addresses T1, Nociceptin receptor. The test is described as follows: Displacement of [3H]nociceptin from human ORL1-Galpha fusion receptor in COS7 cells. Type of test: cell-based, COS-7.
Test [3] deals with Nociceptin receptor (Mus musculus) (UniProt P35377). Nature of the test: Agonist activity at ORL1[…] receptor in ICR mouse vas deferens assessed as inhibition of electrically-stimulated muscle contraction at 10 uM. Type of test: functional, tissue-based. Also on record: scale not given: the % may be the effect or the level left.
Sequence of Nociceptin receptor (Mus musculus) (P35377 whole entry): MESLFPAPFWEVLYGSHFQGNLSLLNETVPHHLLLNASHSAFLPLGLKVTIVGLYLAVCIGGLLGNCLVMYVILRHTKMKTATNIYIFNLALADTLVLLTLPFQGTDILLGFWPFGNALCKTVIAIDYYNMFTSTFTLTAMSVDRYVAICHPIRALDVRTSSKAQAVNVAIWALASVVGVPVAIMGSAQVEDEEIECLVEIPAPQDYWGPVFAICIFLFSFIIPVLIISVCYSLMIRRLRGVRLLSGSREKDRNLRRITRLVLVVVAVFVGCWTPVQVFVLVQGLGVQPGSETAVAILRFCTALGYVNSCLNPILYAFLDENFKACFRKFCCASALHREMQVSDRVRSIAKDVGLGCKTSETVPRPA
Test [4] shares this target. The test is described as follows: Antagonist activity at ORL1[…] receptor in ICR mouse vas deferens assessed as inhibition of electrically-stimulated muscle contraction. Type of test: functional, tissue-based.
Test [5] has the same target. The test is described as follows: Antagonist activity at ORL1[…] receptor in ICR mouse vas deferens assessed as inhibition of electrically-stimulated muscle contraction at 10 uM. Type of test: functional, tissue-based. Details: scale not given: the % may be the effect or the level left.

Take `CC[C@H](C)[C@H](NC(=O)[C@H](CCCN=C(N)N)NC(=O)[C@H](Cc1ccc(O)cc1)NC(=O)[C@H](Cc1ccc(O)cc1)NC(=O)[C@H](CCCN=C(N)N)NC(=O)C(C)(C)CC)C(=O)N[C@@H](CCCCN)C(N)=O`: in test [1], the half-maximal effective concentration (EC50) is 0.0177 µM. Moreover, the IC50 in test [2] stood at 0.0455 µM.
The matching figures for `CC[C@H](C)[C@H](NC(=O)[C@H](CCCN=C(N)N)NC(=O)[C@H](Cc1ccc(O)cc1)NC(=O)[C@H](Cc1ccc(O)cc1)NC(=O)[C@H](CCCN=C(N)N)NC=O)C(=O)N[C@@H](CCCCN)C(N)=O`: 0.0233 µM and 0.00066 µM.
The matching figures for `CCC(C)C(=O)N[C@@H](CCCNC(=N)N)C(=O)N[C@@H](Cc1ccc(O)cc1)C(=O)N[C@@H](Cc1ccc(O)cc1)C(=O)N[C@@H](CCCNC(=N)N)C(=O)N[C@H](C(=O)N[C@@H](CCCCN)C(N)=O)[C@@H](C)CC` (stereo partly drawn): 0.0527 µM and 0.0213 µM.
For `CC[C@H](C)[C@H](NC(=O)[C@H](CCCN=C(N)N)NC(=O)[C@H](Cc1ccc(O)cc1)NC(=O)[C@H](Cc1ccc(O)cc1)NC(=O)[C@H](CCCN=C(N)N)NC(C)=O)C(=O)N[C@@H](CCCCN)C(N)=O`, the Activity in test [3] was found to be 40%.
`CCC(CC)C(=O)N[C@@H](CCCN=C(N)N)C(=O)N[C@@H](Cc1ccc(O)cc1)C(=O)N[C@@H](Cc1ccc(O)cc1)C(=O)N[C@@H](CCCN=C(N)N)C(=O)N[C@H](C(=O)N[C@@H](CCCCN)C(N)=O)[C@@H](C)CC` displayed an IC50 in test [2] of 0.0926 µM.
As to `CC(C)C[C@H](NC(=O)[C@H](CCCCN)NC(=O)[C@H](CCCNC(=N)N)NC(=O)[C@H](C)NC(=O)[C@H](CO)NC(=O)[C@H](CCCCN)NC(=O)[C@H](CCCNC(=N)N)NC(=O)[C@H](C)NC(=O)CNC(=O)[C@@H](NC(=O)[C@H](Cc1ccccc1)NC(=O)CNC(=O)CNC(=O)[C@@H](N)Cc1ccccc1)[C@@H](C)O)C(=O)N[C@@H](C)C(=O)N[C@@H](CC(N)=O)C(=O)N[C@@H](CCC(N)=O)C(=O)O`, in test [4], the ED50 is 0.0193 µM.
With `CC[C@H](C)[C@H](NC(=O)[C@H](CCCN=C(N)N)NC(=O)[C@H](Cc1ccc(O)cc1)NC(=O)[C@H](Cc1ccc(O)cc1)NC(=O)[C@H](CCCN=C(N)N)NC(=O)CC(C)(C)C)C(=O)N[C@@H](CCCCN)C(N)=O`, the EC50 in test [1] is 0.0465 µM. The compound further returned an IC50 in test [2] of 0.0169 µM.
With `CC[C@H](C)[C@H](NC(=O)[C@H](CCCNC(=N)N)NC(=O)[C@H](Cc1ccc(O)cc1)NC(=O)[C@H](Cc1ccc(O)cc1)NC(=O)[C@H](CCCNC(=N)N)NC(=O)c1ccccc1)C(=O)N[C@@H](CCCCN)C(N)=O`, the EC50 in test [1] stood at 0.0183 µM. Besides, the IC50 in test [2] was 0.0147 µM.
Consider `CC[C@H](C)[C@H](NC(=O)[C@H](CCCNC(=N)N)NC(=O)[C@H](Cc1ccc(O)cc1)NC(=O)[C@H](Cc1ccc(O)cc1)NC(=O)[C@H](CCCNC(=N)N)NC(=O)C(C)(C)C)C(=O)N[C@@H](CCCCN)C(N)=O`, for which the EC50 in test [1] stood at 0.0979 µM. The compound also had an IC50 in test [2] of 0.0149 µM.
On to `CC[C@H](C)[C@H](NC(=O)[C@H](CCCNC(=N)N)NC(=O)[C@H](Cc1ccc(O)cc1)NC(=O)[C@H](Cc1ccccc1)NC(=O)[C@@H](N)CCCNC(=N)N)C(=O)N[C@@H](CCCCN)C(N)=O`, for which the result in test [4] was inactive.
Regarding `CCCCCC(=O)N[C@@H](CCCNC(=N)N)C(=O)N[C@@H](Cc1ccc(O)cc1)C(=O)N[C@@H](Cc1ccc(O)cc1)C(=O)N[C@@H](CCCNC(=N)N)C(=O)N[C@H](C(=O)N[C@@H](CCCCN)C(N)=O)[C@@H](C)CC`, the 50% inhibitory concentration (IC50) in test [2] turned out to be 0.0217 µM.
`CC[C@H](C)[C@H](NC(=O)[C@H](CCCNC(=N)N)NC(=O)[C@H](Cc1ccc(O)cc1)NC(=O)[C@H](Cc1ccc(O)cc1)NC(=O)[C@H](CCCNC(=N)N)NC(=O)C(C)C)C(=O)N[C@@H](CCCCN)C(N)=O`: the 50% effective concentration (EC50) in test [1] stood at 0.0445 µM. Also, the IC50 in test [2] came to 0.00281 µM.
Regarding `CCC(=O)N[C@@H](CCCNC(=N)N)C(=O)N[C@@H](Cc1ccccc1)C(=O)N[C@@H](Cc1ccc(O)cc1)C(=O)N[C@@H](CCCNC(=N)N)C(=O)N[C@H](C(=O)N[C@@H](CCCCN)C(N)=O)[C@@H](C)CC` (Propionyl-RFYRIK-NH2), the Activity in test [5] was 90%.
`CC[C@H](C)[C@H](NC(=O)[C@H](CCCNC(=N)N)NC(=O)[C@H](Cc1ccc(O)cc1)NC(=O)[C@H](Cc1ccc(O)cc1)NC(=O)[C@@H](N)CCCNC(=N)N)C(=O)N[C@@H](CCCCN)C(N)=O`: in test [2], the IC50 was 0.218 µM.
Regarding `CCCC(C)C(=O)N[C@@H](CCCNC(=N)N)C(=O)N[C@@H](Cc1ccc(O)cc1)C(=O)N[C@@H](Cc1ccc(O)cc1)C(=O)N[C@@H](CCCNC(=N)N)C(=O)N[C@H](C(=O)N[C@@H](CCCCN)C(N)=O)[C@@H](C)CC` (stereo partly drawn), in test [1], the EC50 was determined as 0.0238 µM. For the same compound, the IC50 in test [2] was 0.0473 µM.
For `CC[C@H](C)[C@H](NC(=O)[C@H](CCCNC(=N)N)NC(=O)[C@H](Cc1ccc(O)cc1)NC(=O)[C@H](Cc1ccccc1)NC(=O)[C@H](CCCNC(=N)N)NC(=O)CC(C)C)C(=O)N[C@@H](CCCCN)C(N)=O` (Isovaleryl-RFYRIK-NH2), in test [4], the Activity entry is “Dose-dependent effect”.
As to `CCC(=O)N[C@@H](CCCNC(=N)N)C(=O)N[C@@H](Cc1ccc(O)cc1)C(=O)N[C@@H](Cc1ccc(O)cc1)C(=O)N[C@@H](CCCNC(=N)N)C(=O)N[C@H](C(=O)N[C@@H](CCCCN)C(N)=O)[C@@H](C)CC`, the EC50 in test [1] is 0.0276 µM. The IC50 in test [2] stood at 0.0017 µM.
For the compound `CC[C@H](C)[C@H](NC(=O)[C@H](CCCN=C(N)N)NC(=O)[C@H](Cc1ccc(O)cc1)NC(=O)[C@H](Cc1ccc(O)cc1)NC(=O)[C@H](CCCN=C(N)N)NC(=O)C12CC3CC(CC(C3)C1)C2)C(=O)N[C@@H](CCCCN)C(N)=O`, the EC50 in test [1] is 0.0192 µM. This compound also yielded an IC50 in test [2] of 0.00342 µM.
The matching figures for `CCCC(=O)N[C@@H](CCCNC(=N)N)C(=O)N[C@@H](Cc1ccc(O)cc1)C(=O)N[C@@H](Cc1ccc(O)cc1)C(=O)N[C@@H](CCCNC(=N)N)C(=O)N[C@H](C(=O)N[C@@H](CCCCN)C(N)=O)[C@@H](C)CC`: 0.0324 µM and 0.00186 µM.
Compound `CC[C@H](C)[C@H](NC(=O)[C@H](CCCNC(=N)N)NC(=O)[C@H](Cc1ccc(O)cc1)NC(=O)[C@H](Cc1ccc(O)cc1)NC(=O)[C@H](CCCNC(=N)N)NC(=O)CC(C)C)C(=O)N[C@@H](CCCCN)C(N)=O` yielded an IC50 in test [2] of 0.00742 µM.
The same measure, in the same setting: the value for `CCCCC(=O)N[C@@H](CCCN=C(N)N)C(=O)N[C@@H](Cc1ccc(O)cc1)C(=O)N[C@@H](Cc1ccc(O)cc1)C(=O)N[C@@H](CCCN=C(N)N)C(=O)N[C@H](C(=O)N[C@@H](CCCCN)C(N)=O)[C@@H](C)CC` was 0.00567 µM.
As for `CC[C@H](C)[C@H](NC(=O)[C@H](CCCNC(=N)N)NC(=O)[C@H](Cc1ccc(O)cc1)NC(=O)[C@H](Cc1ccccc1)NC(=O)[C@H](CCCNC(=N)N)NC(=O)c1ccccc1)C(=O)N[C@@H](CCCCN)C(N)=O` (Bz-RFYRIK-NH2), the Activity in test [5] was determined as 90%.

A word on the EC50: it is the midpoint of the concentration-response curve. In general, IC50 refers to the concentration needed to halve the response being measured.
